Structures can show the parent of a compound that is named as a salt.
Assays:
[1] = system: HCT116-Cas9; experiment: Growth suppression assay (resazurin); format: cell-based; settings: 48 hours
Procedure: (§1) Cells were grown in 96-well plates at a density of 3000 cells per well with or without doxycycline and treated with compounds. After 48 hours of incubation the proliferative cell reagent resazurin (Thermo Fisher Scientific) was added to the cells. The degree of resazurin reduction, which reflects cell viability, was measured by microplate reader by monitoring the absorbance at 570 nm and 600 nm, according to the manufacturer.
(§2) Two carcinoma cell lines, MCF7 (breast carcinoma) and HCT116 (colon carcinoma) grown in 96-well plates, were treated with increasing concentrations of the synthesized compounds, ranging from […]. After 48 hours of incubation the proliferative cell reagent resazurin was added to the cells. The degree of resazurin reduction, which reflects cell viability, was measured by microplate reader by monitoring the absorbance at 570 nm and 600 nm, according to the manufacturer and the IC50 was determined (Table 1).

[2] = system: MCF7-Cas9; experiment: Growth suppression assay (resazurin); format: cell-based; settings: 48 hours, hydrochloride
Procedure: as §1, §2

[3] = Solubility; format: physicochemical; settings: solvent in which soluble

SMILES | Solubility [3] | further results
N#Cc1c(-c2ccncc2)[n+]([O-])c2cc(N3CCOCC3)c(F)cc2[n+]1[O-] [1a*HCl, 7-Fluoro-6-(morpholin-4-yl)-3-(pyridin-4-yl)quinoxaline-2-carbonitrile-1,4-dioxide hydrochloride] | – | IC50 ([1]; hydrochloride): 9.3 µM; IC50 [2]: > 10 µM
N#Cc1c(-c2ccncc2)[n+]([O-])c2cc(F)c(N3CCOCC3)cc2[n+]1[O-] [1b*MsOH, 6-Fluoro-7-(morpholin-4-yl)-3-(pyridin-4-yl)quinoxaline-2-carbonitrile-1,4-dioxide methanesulfonate] | – | IC50 ([1]; methanesulfonate): 3.4 µM
N#Cc1c(-c2ccncc2)[n+]([O-])c2cc(N3CCOCC3)c(F)cc2[n+]1[O-] [Compound 1a, 7-Fluoro-6-(morpholin-4-yl)-3-(pyridin-4-yl)quinoxaline-2-carbonitrile 1,4-dioxide] | Warm DMSO | –

Further lines, with some results ahead:

Solubility [3] | SMILES | further results
Warm DMSO | N#Cc1c(-c2ccncc2)[n+]([O-])c2cc(F)c(N3CCOCC3)cc2[n+]1[O-] [Compound 1b, 6-Fluoro-7-(morpholin-4-yl)-3-(pyridin-4-yl)quinoxaline-2-carbonitrile-1,4-dioxide] | –
Warm DMSO | N#Cc1c(-c2cccnc2)[n+]([O-])c2cc(N3CCOCC3)c(F)cc2[n+]1[O-] [Compound 1c, 7-Fluoro-6-(morpholin-4-yl)-3-(pyridin-3-yl)quinoxaline-2-carbonitrile-1,4-dioxide] | –
Warm DMSO | N#Cc1c(-c2cccnc2)[n+]([O-])c2cc(F)c(N3CCOCC3)cc2[n+]1[O-] [Compound 1d, 6-Fluoro-7-(morpholin-4-yl)-3-(pyridin-3-yl)quinoxaline-2-carbonitrile-1,4-dioxide] | –
Warm DMSO | N#Cc1c(-c2cccnc2)[n+]([O-])c2cc(F)c(N3CCCC3)cc2[n+]1[O-] [Compound 1f, 6-Fluoro-7-(pyrrolidin-1-yl)-3-(pyridin-3-yl)quinoxaline-2-carbonitrile-1,4-dioxide] | –
Warm DMSO | N#Cc1c(-c2cccnc2)[n+]([O-])c2cc(F)c(N3CCCCC3)cc2[n+]1[O-] [Compound 1g, 6-Fluoro-7-(piperidin-1-yl)-3-(pyridin-3-yl)quinoxaline-2-carbonitrile-1,4-dioxide] | –

From patent publication US20260265216A1, “NOVEL THIOREDOXIN REDUCTASE INHIBITORS” (GENEXPLAIN GMBH, priority 2021, published 2026)
